Converted amounts (≈) assume the structure as drawn. Like-named read-outs stand apart in the source and are kept apart here.
Experiments:
Escherichia coli = test: Antibiotic activity of ampicillin (Example 24); assay type: cell-based
Streptococcus faecalis = test: Antibiotic activity of ampicillin (Example 24); assay type: cell-based; conditions: Enterococcus faecalis, read-out: minimal inhibitory concentration
Group C streptococcus = test: Antibiotic activity of ampicillin (Example 24); assay type: cell-based; conditions: read-out: minimal inhibitory concentration
Pseudomonas aeruginosa [1] = test: Antibiotic activity of ampicillin (Example 24); assay type: cell-based; conditions: read-out: minimal inhibitory concentration
Haemophilus influenzae [2] = test: Antibiotic activity of ampicillin (Example 24); assay type: cell-based; conditions: read-out: minimal inhibitory concentration
Staphylococcus aureus [3] = test: Antibiotic activity of ampicillin (Example 24); assay type: cell-based; conditions: read-out: minimal inhibitory concentration
Entrococcus faecium = test: Antibiotic activity of ampicillin (Example 24); assay type: cell-based; conditions: resistant to ampicillin, read-out: minimal inhibitory concentration
Pseudomonas aeruginosa [4] = test: MIC of gentamicine, inclined agar with concentration gradient; assay type: cell-based; conditions: in presence of Fli at 16; RESISTANT strains
Method: (§1) The strains used were wild-type hospital strains having a resistant phenotype as regards gentamicine: pseudomonas aeruginosa, proteus mirabilis, serratia marcescens.
(§2) The phenotype of the strains was determined by diffusion in gradient on selective agar. Then, each group of strains having the same phenotype (resistant or sensible) was seeded on inclined agar having a gradient of concentration of the composition.
(§3) This methodology is explained by SZYBALSKI and BRYSON in "Selection de mutants resistant aux antibiotiques", L'antibiogramme, Vigot, p. 259-260.
(§4) The results are shown in the following table illustrating the MIC of gentamicine (aminoglycoside antibiotic).
(§5) x/y means a concentration read between x ppm and y ppm.

serratia marcescens [5] = test: as above; assay type: cell-based
Method: as §1, §2, §3, §4, §5

proteus mirabilis = test: "chess" test, dilution in liquid medium, Trial 2; assay type: cell-based
Text: (§6) Substance A was gentamicine
The strain was a very resistant proteus mirabilis (wild-type hospital)

Klebsiella pneumoniae [6] = test: "chess" test, dilution in liquid medium, Trial 3; assay type: cell-based
Text: as §6
The strain was Klebsiella pneumoniae (wild-type hospital strain)

Pseudomonas aeruginosa [7] = test: "chess" test, dilution in liquid medium, Trial 4; assay type: cell-based
Text: as §6
The strain was pseudomonas aeruginosa (wild-type hospital resistant strain)

[8] = test system: pseudomonas aeruginosa and Escherichia coli; assay type: cell-based
Text: It is known that a strain develops a resistance against an antibiotic substance with which it is left in contact, by a phenotypical mutation procedure.
This phenomena has been studied on pseudomonas aeruginosa and Escherichia coli (wild-type hospital strains) which commonly develop resistance against aminosides. The antibiotic substance choosen was thus gentamicine which is an aminoside antibiotic.
And the growth of the resistance was studied with gentamicine alone, then with gentamicine in presence of Fli.
The trial was conducted on 12 days, and the MIC of gentamicine alone and of gentamicine in presence of Fli (4 ppm) was determined each day on transportplates in liquid medium with a serie of dilution in Mueller/Hinton agar.
The MBC (Minimal Bactericide Concentration) was also determined from the solution after determination of the MIC seeded on agar adapted to the strain. The MBC is read for a percentage of survivors less than 0,20%.

salmonella spirochete = test: "Time killing curve", optical density at 600 nm; assay type: cell-based; conditions: Fli 32 ppm
Method: (§7) The kinetics of the bacterial growth of serratia marcescens and salmonella spirochete has been studied with the "Time killing curve" methodology, for gentamicine (64 ppm) alone, Fli (32 ppm) and gentamicine (64 ppm) in presence of Fli (32 ppm). The bacterial growth is determined by spectrophotometric reading of the optical density for a wavelength of 600 nm.
(§8) The following table illustrates the optical density (1/100) obtained: […]

serratia marcescens [9] = test: "Time killing curve", optical density at 600 nm; assay type: cell-based; conditions: Fli 32 ppm
Method: as §7, §8

Staphylococcus aureus [10] = conditions: A (tetracycline) in presence of B (Fli)
Method: (§9) Concentration series of two antibiotic substances A and B are prepared in the geometric ratio of 2 are combined and the following values are determined:
(§10) MIC B/A = minimal inhibiting concentration B in presence of A [formula]
(§11) The MIC of the bacteriostatic effect is read when the percentage of surviving strains is less or equal to 1%.
(§12) The combination of the substances A and B is synergistic as regards the bacteriostatic effect when FIC≤0,75. The combination is additive when FIC=1. The combination is insensible when 1<FIC≤2. The combination is antagonistic when FIC>2.
(§13) Substance A was tetracycline (concentration serie from 0,25 to 128 mg/l)
(§14) Substance B was Fli (concentration serie from 0,25 to 16 mg/l)
(§15) The strain was staphylococcus aureus (wild-type hospital resistant strain)

Staphylococcus aureus [11] = test: microbe, parasite or virus in culture; conditions: read-out: MIC alone (MIC A, MIC B)
Method: as §9, §10, §11, §12, §13, §14, §15

Klebsiella pneumoniae [12] = test: microbe, parasite or virus in culture
Method: The MIC of tetracycline was studied on Klebsiella pneumoniae (wild-type hospital strain).
The trial was conducted with tetracycline alone, tetracycline in presence of FNa and tetracycline in presence of Fli.

Haemophilus influenzae [13] = test system: Haemophilus influenzae
Klebsiella pneumoniae [14] = test system: Klebsiella pneumoniae
spermatozoa = conditions: alone; cited from earlier work
[15] = LiF 0.8 mg/l, multiresistant strains often producing beta-lactamase
[16] = alone, multiresistant strains often producing beta-lactamase
[17] = A (gentamicine) in presence of B (Fli)
[18] = read-out: 100% inhibitory concentration, alone

## CC1(C)S[C@@H]2[C@H](NC(=O)[C@H](N)c3ccccc3)C(=O)N2[C@H]1C(=O)O [AMPICILLIN, ampicillin]
Escherichia coli; ATCC25, LiF 1 mg/l, ATCC 25 922, read-out: minimal inhibitory concentration
  MIC: 2 µg/mL (≈ 5.72 µM)
Escherichia coli; ATCC25, alone, ATCC 25 922, read-out: minimal inhibitory concentration
  MIC: 4 µg/mL (≈ 11.4 µM)
Escherichia coli; LiF 0.8 mg/l, multiresistant strains often producing beta-lactamase, read-out: minimal inhibitory concentration
  MIC: 8 µg/mL (≈ 22.9 µM)
Escherichia coli; LiF 5 mg/l, 10 wild-type strains, read-out: minimal inhibitory concentration
  MIC: 1 to 4 µg/mL (≈ 2.86 to 11.4 µM)
Escherichia coli; LiF 5 mg/l, resistant Escherichia coli, read-out: minimal inhibitory concentration
  MIC: 8 µg/mL (≈ 22.9 µM)
Escherichia coli; alone, 10 wild-type strains, read-out: minimal inhibitory concentration
  MIC: 2 to 8 µg/mL (≈ 5.72 to 22.9 µM)
Escherichia coli; alone, multiresistant strains often producing beta-lactamase, read-out: minimal inhibitory concentration
  MIC: 64 µg/mL (≈ 183 µM)
Escherichia coli; alone, resistant Escherichia coli, read-out: minimal inhibitory concentration
  MIC: 64 µg/mL (≈ 183 µM)
Streptococcus faecalis; ATCC25, LiF 5 mg/l, ATCC 25 212
  MIC: 4 µg/mL (≈ 11.4 µM)
Streptococcus faecalis; ATCC25, alone, ATCC 25 212
  MIC: 8 µg/mL (≈ 22.9 µM)
Streptococcus faecalis; LiF 5 mg/l, 10 wild-type strains
  MIC: 2 µg/mL (≈ 5.72 µM)
Streptococcus faecalis; alone, 10 wild-type strains
  MIC: 4 to 8 µg/mL (≈ 11.4 to 22.9 µM)
Group C streptococcus; [15]
  MIC: 64 µg/mL (≈ 183 µM)
Group C streptococcus; LiF 1 mg/l
  MIC: 8 µg/mL (≈ 22.9 µM)
Group C streptococcus; [16]
  MIC: 256 µg/mL (≈ 733 µM)
Group C streptococcus; alone
  MIC: 32 µg/mL (≈ 91.6 µM)
Pseudomonas aeruginosa [1]; [15]
  MIC: 4 to 8 µg/mL (≈ 11.4 to 22.9 µM)
Pseudomonas aeruginosa [1]; LiF 5 mg/l
  MIC: 4 to 8 µg/mL (≈ 11.4 to 22.9 µM)
Pseudomonas aeruginosa [1]; [16]
  MIC: 16 to 32 µg/mL (≈ 45.8 to 91.6 µM)
Pseudomonas aeruginosa [1]; alone
  MIC: 16 to 32 µg/mL (≈ 45.8 to 91.6 µM)
Haemophilus influenzae [2]; [15]
  MIC: 32 µg/mL (≈ 91.6 µM)
Haemophilus influenzae [2]; LiF 5 mg/l, resistant to ampicillin, 5 wild-type strains
  MIC: 32 µg/mL (≈ 91.6 µM)
Haemophilus influenzae [2]; [16]
  MIC: > 128 µg/mL
Haemophilus influenzae [2]; alone, resistant to ampicillin, 5 wild-type strains
  MIC: > 128 µg/mL
Staphylococcus aureus [3]; [15]
  MIC: 32 µg/mL (≈ 91.6 µM)
Staphylococcus aureus [3]; LiF 1 mg/l, resistant to ampicillin, 10 strains
  MIC: 64 µg/mL (≈ 183 µM)
Staphylococcus aureus [3]; LiF 6 mg/l, resistant to ampicillin, strains producing beta-lactamase
  MIC: 64 µg/mL (≈ 183 µM)
Staphylococcus aureus [3]; [16]
  MIC: > 128 µg/mL
Staphylococcus aureus [3]; alone, resistant to ampicillin, 10 strains
  MIC: > 128 µg/mL
Staphylococcus aureus [3]; alone, resistant to ampicillin, strains producing beta-lactamase
  MIC: > 128 µg/mL
Entrococcus faecium; LiF 5 mg/l
  MIC: 64 µg/mL (≈ 183 µM)
Entrococcus faecium; alone
  MIC: > 128 µg/mL

## gentamicine
Pseudomonas aeruginosa [4]
  MIC: 64 ppm or mg/l
Serratia marcescens [5]; in presence of Fli at 8, SENSIBLE strains
  MIC: 8 ppm or mg/l
Serratia marcescens [5]; in presence of Fli at 16, RESISTANT strains
  MIC: 32 ppm or mg/l
Proteus mirabilis; [17]
  MIC A/B: 16 µg/mL
Proteus mirabilis; alone, very resistant wild-type hospital strain
  MIC alone (MIC A, MIC B): 64 µg/mL
Klebsiella pneumoniae [6]; [17]
  MIC A/B: 4 µg/mL
Klebsiella pneumoniae [6]; alone, wild-type hospital strain
  MIC alone (MIC A, MIC B): 16 µg/mL
Pseudomonas aeruginosa [7]; [17]
  MIC A/B: 16 µg/mL
Pseudomonas aeruginosa [7]; alone, wild-type hospital resistant strain
  MIC alone (MIC A, MIC B): 64 µg/mL
[8]; gentamicine alone
  day the resistance appears: the third or fourth day
[8]; gentamicine with Fli (4 ppm)
  day the resistance appears: the fourth or sixth day
Salmonella spirochete; 3 h 00, gentamicine 64 ppm
  optical density (1/100): 8 1/100
Salmonella spirochete; 6 h 00, gentamicine 64 ppm
  optical density (1/100): 7 1/100
Serratia marcescens [9]; 6 h 00, gentamicine 64 ppm
  optical density (1/100): 5 1/100
Serratia marcescens [9]; 24 h 00, gentamicine 64 ppm
  optical density (1/100): 4 1/100

## CN(C)C1C(=O)C(C(N)=O)=C(O)C2(O)C(=O)C3=C(O)c4c(O)cccc4C(C)(O)C3CC12 (centres unmarked) [TETRACYCLINE, tetracycline]
Staphylococcus aureus [10]
  MIC A/B: 4 µg/mL
Staphylococcus aureus [11]
  MIC: 32 µg/mL (≈ 72 µM)
Klebsiella pneumoniae [12]
  MIC: 512 µg/mL (≈ 1150 µM)
Haemophilus influenzae [13]; [18]
  MIC: 4 to 8 µg/mL (≈ 9 to 18 µM)
Haemophilus influenzae [13]; read-out: 100% inhibitory concentration, in the presence of LiF 4 ppm
  MIC: 2 to 4 µg/mL
Klebsiella pneumoniae [14]; [18]
  MIC: 0.5 µg/mL (≈ 1.13 µM)
Klebsiella pneumoniae [14]; read-out: 100% inhibitory concentration, in the presence of LiF 2 ppm
  MIC: 0.25 µg/mL

## F [F^- ions]
spermatozoa
  MIC (minimal inhibitory concentration): 5 ppm
  MIC, equivalent in %: 0.0005%

From US5800838A, “Composition that inhibits or destroys at least one unicellular living organism containing fluorine F- and Lithium li+” (priority 1987, dated 1998)
